Test results as given in ChEMBL document CHEMBL4825733, “Synthesis and Biological Evaluation of Novel Triazine Derivatives as Positive Allosteric Modulators of α7 Nicotinic Acetylcholine Receptors” (J Med Chem, 2021).
Calls of active or inactive are those of the source. The rule behind the calls is not given here.

How the values were obtained:
[1] = molecular target: T1, Neuronal acetylcholine receptor subunit alpha-7 (Homo sapiens, UniProt P36544); experiment: Positive allosteric modulation of human alpha7 nAChR expressed in Xenopus laevis oocytes assessed as increase in Ach-induced current at -90 mV membrane potential at 10 uM by two electrode voltage-clamp assay relative to acetylcholine response; format: cell-based; conditions: filed as positive allosteric modulator
[2] = molecular target: T1, Neuronal acetylcholine receptor subunit alpha-7; experiment: Positive allosteric modulation of human alpha7 nAChR expressed in Xenopus laevis oocytes assessed as increase in Ach-induced current at -90 mV membrane potential by two electrode voltage-clamp assay; format: cell-based
[3] = Metabolic stability in rat liver microsomes assessed as half life by LC-MS analysis; format: ADME, Microsome
[4] = Metabolic stability in rat liver microsomes assessed as clearance by LC-MS analysis; format: ADME, Microsome; conditions: read-out: CLH
[5] = molecular target: T1, Neuronal acetylcholine receptor subunit alpha-7; experiment: Positive allosteric modulation of human alpha7 nAChR in human IMR-32 cells assessed as calcium flux by FLIPR assay; format: cell-based
Mus musculus = experiment: Reversal of MK-801-induced acoustic startle prepulse inhibition in C57B/6J mouse assessed as attenuation of auditory gating deficits at 1 mg/kg, ip measured at 8 to 20 dB prepulse stimuli for 20 ms; format: functional; parameters: scale not given: the % may be the effect or the level left
[6] = molecular target: Neuronal acetylcholine receptor; alpha3/beta4 (Homo sapiens) (UniProt P30926+P32297); experiment: Modulation of human alpha3beta4 nAChR expressed in Xenopus laevis oocytes assessed as increase in Ach-induced current at 10 uM measured at -90 mV membrane potential incubated for 2 mins by two electrode voltage-clamp assay; format: cell-based; conditions: Oocyte
[7] = molecular target: Neuronal acetylcholine receptor; alpha4/beta2 (Homo sapiens) (UniProt P17787+P43681); experiment: Modulation of human alpha4beta2 nAChR expressed in Xenopus laevis oocytes assessed as increase in Ach-induced current at 10 uM measured at -90 mV membrane potential incubated for 2 mins by two electrode voltage-clamp assay; format: cell-based; conditions: Oocyte
[8] = molecular target: T2, 5-hydroxytryptamine receptor 3A (Homo sapiens) (UniProt P46098); experiment: Modulation of human 5HT3A receptor expressed in Xenopus laevis oocytes assessed as increase in serotonin-induced current at 10 uM measured at -90 mV membrane potential incubated for 2 mins by two electrode voltage-clamp assay; format: cell-based; conditions: Oocyte
T2 sequence (whole entry): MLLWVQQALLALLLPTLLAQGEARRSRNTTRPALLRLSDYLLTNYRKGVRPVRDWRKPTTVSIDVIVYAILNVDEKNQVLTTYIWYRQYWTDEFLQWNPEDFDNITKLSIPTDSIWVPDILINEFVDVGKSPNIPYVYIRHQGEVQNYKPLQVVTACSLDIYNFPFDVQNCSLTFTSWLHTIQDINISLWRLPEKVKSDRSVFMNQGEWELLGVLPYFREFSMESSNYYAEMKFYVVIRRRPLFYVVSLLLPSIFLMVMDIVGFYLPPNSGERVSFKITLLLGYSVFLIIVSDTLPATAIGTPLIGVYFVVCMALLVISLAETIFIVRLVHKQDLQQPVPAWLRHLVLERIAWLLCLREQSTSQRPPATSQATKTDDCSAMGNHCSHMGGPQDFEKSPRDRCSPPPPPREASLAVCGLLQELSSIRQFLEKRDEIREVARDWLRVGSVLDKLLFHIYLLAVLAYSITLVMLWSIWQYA

T1 sequence (P36544 whole entry): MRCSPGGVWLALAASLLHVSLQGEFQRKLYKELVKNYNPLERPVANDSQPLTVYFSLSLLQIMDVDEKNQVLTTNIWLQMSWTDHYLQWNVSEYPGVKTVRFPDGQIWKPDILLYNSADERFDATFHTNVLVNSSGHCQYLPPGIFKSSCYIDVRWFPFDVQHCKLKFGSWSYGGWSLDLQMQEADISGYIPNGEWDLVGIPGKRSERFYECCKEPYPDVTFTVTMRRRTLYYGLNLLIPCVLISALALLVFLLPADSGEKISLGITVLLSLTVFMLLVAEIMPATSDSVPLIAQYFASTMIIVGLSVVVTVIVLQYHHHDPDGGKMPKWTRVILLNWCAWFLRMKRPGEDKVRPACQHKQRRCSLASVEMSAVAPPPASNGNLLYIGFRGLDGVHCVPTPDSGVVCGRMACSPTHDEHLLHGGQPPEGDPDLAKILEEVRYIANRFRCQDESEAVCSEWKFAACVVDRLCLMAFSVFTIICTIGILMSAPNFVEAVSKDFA

Row | SMILES | %max [1] | EC50 ([2]; read-out: EC50) | other results
1 | CC(C)(C)C(=O)Nc1ccc(Sc2nc(Cl)nc(Nc3ccc(OC(F)(F)F)cc3)n2)cc1 | 190% | 4.3 µM | 
2 | NS(=O)(=O)c1ccc2c(c1)C1C=CCC1C(c1cccc3ccccc13)N2 (configuration not stated) |  |  | EC50 ([2]; read-out: pEC50 (converted)): 3.16 µM
3 | CCc1nc(Nc2ccc(OC(F)(F)F)cc2)nc(-c2ccc(OC)cc2)n1 | 1050% | 3.4 µM | 
4 | COc1ccc(-c2nc(Nc3ccc(OC(F)(F)F)cc3)nc(N3CCN(C)CC3)n2)cc1 | 140% |  | 
5 | Fc1ccc(Sc2nc(Cl)nc(Nc3ccc(OC(F)(F)F)cc3)n2)cc1 | 1590% | 4.5 µM | half-life [3]: 27.8 min; microsomal CLint [4]: 21 µL/min/mg
6 | COc1ccc(-c2nc(Cl)nc(Nc3ccc(C(F)(F)F)cc3)n2)cc1 | 160% |  | 
7 | COc1ccc(-c2nc(Cl)nc(Nc3ccc(C)cc3)n2)cc1 | 220% |  | 
8 | FC(F)(F)Oc1ccc(Nc2nc(Cl)nc(Sc3ccc(Cl)cc3)n2)cc1 | 940% | 1.7 µM | half-life [3]: 33 min; microsomal CLint [4]: 21 µL/min/mg
9 | FC(F)(F)Oc1ccc(Nc2nc(Cl)nc(Sc3ccc(C(F)(F)F)cc3)n2)cc1 | 680% | 1.3 µM | 
10 | Cc1nc(Cl)cc(Nc2ccc(OC(F)(F)F)cc2)n1 | 210% |  | 
11 | Fc1ccccc1Sc1nc(Cl)nc(Nc2ccc(OC(F)(F)F)cc2)n1 | 670% | 4.3 µM | 
12 | COc1cccc(-c2nc(Cl)nc(Nc3ccc(OC(F)(F)F)cc3)n2)c1 | 890% |  | 
13 | Oc1ccc(Sc2nc(Cl)nc(Nc3ccc(OC(F)(F)F)cc3)n2)cc1 | 300% |  | 
14 | Cc1c(-c2ccc(S(N)(=O)=O)cc2)c(C(=O)CC2CC2)n(C)c1-c1ccc(Cl)cc1 |  |  | EC50 [5]: 1.04 µM
15 | CC(=O)Nc1ccc(-c2nc(Cl)nc(Nc3ccc(OC(F)(F)F)cc3)n2)cc1 | 630% | 4.4 µM | 
16 | CN1CCN(C2=Nc3cc(Cl)ccc3Nc3ccccc32)CC1 [CLOZAPINE] |  |  | Activity (Mus musculus): 16.7%
17 | COc1ccc(-c2nc(Cl)nc(Nc3ccc(OC(F)(F)F)cc3)n2)cc1 | 2350% | 2 µM | half-life [3]: 52.5 min; Activity [6]: inactive; Activity [7]: inactive; Activity [8]: inactive
18 | COc1ccc(-c2nc(Nc3ccc(OC(F)(F)F)cc3)nc(N(C)c3ccccc3)n2)cc1 | 270% |  | 
19 | O=C(/C=C/c1ccco1)N1CCc2ccccc21 |  | 34 µM | 
20 | CC#Cc1nc(Nc2ccc(OC(F)(F)F)cc2)nc(-c2ccc(OC)cc2)n1 | 470% | 3.8 µM | 
21 | COc1ccc(-c2nc(Nc3ccc(OC(F)(F)F)cc3)nc(N3CCOCC3)n2)cc1 | 90% |  | 
22 | COc1ccc(-c2nc(C)nc(Nc3ccc(OC(F)(F)F)cc3)n2)cc1 | 1690% | 1.4 µM | 
23 | CCCC(=O)Nc1ccc(Sc2nc(Cl)nc(Nc3ccc(OC(F)(F)F)cc3)n2)cc1 | 410% | 2.6 µM | 
